Test results reported in BindingDB's records for PubMed 9152366 (University of California San Francisco, 1997).
“And” between values parts separate entries of the source, which are not always exact repeats. Identical values can stand only once. Bridge positions count the residues as written; N and C are the ends. Square brackets hold non-standard residues; d marks the D form. Peptide text beside a SMILES is read from it. Nle = CCCC[C@H](N)C(=O)O

Columns and labels:
[1] = target: T1, Vasoactive intestinal polypeptide receptor 2 (Homo sapiens, UniProt P41587)
T1 sequence (P41587 whole entry): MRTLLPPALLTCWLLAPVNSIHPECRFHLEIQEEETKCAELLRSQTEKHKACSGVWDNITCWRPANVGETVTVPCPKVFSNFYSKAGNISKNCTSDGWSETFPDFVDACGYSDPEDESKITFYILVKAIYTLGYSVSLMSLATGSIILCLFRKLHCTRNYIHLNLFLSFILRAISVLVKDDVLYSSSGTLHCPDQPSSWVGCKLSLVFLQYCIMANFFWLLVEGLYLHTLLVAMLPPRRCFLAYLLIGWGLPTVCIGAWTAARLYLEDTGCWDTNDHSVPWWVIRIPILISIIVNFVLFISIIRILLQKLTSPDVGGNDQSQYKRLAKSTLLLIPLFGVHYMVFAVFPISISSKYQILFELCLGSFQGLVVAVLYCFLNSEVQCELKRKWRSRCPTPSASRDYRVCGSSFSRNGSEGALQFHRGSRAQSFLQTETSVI

VIP peptides = target: T2, VIP peptides (Homo sapiens, UniProt P01282)
T2 sequence (P01282 whole entry): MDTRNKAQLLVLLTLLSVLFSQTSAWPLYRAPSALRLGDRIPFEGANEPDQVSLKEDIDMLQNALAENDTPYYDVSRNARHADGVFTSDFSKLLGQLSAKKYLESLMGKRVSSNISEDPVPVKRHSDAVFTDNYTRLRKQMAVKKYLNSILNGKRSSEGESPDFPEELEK

In the case of `CCCC[C@H](NC(=O)[C@H](CCC(N)=O)NC(=O)[C@H](CCCCN)NC(=O)[C@H](CCCNC(=N)N)NC(=O)[C@H](CC(C)C)NC(=O)[C@H](CCCCN)NC(=O)[C@@H](NC(=O)[C@H](Cc1ccc(OC)cc1)NC(=O)[C@H](CC(N)=O)NC(=O)[C@H](CCC(=O)O)NC(=O)[C@@H](NC(=O)[C@H](Cc1ccccc1)NC(=O)[C@@H](NC(=O)[C@H](C)NC(=O)[C@H](CC(=O)O)NC(=O)[C@H](CO)NC(=O)[C@H](Cc1c[nH]cn1)NC(C)=O)C(C)C)[C@@H](C)O)[C@@H](C)O)C(=O)N[C@@H](C)C(=O)N[C@@H](C)C(=O)N[C@@H](CCCCN)C(=O)N[C@H]1CCCCNC(=O)C[C@@H](C(=O)N[C@@H](CC(C)C)C(=O)N[C@@H](CCCCN)C(=O)N[C@@H](CCCCN)C(N)=O)NC(=O)[C@H](CC(N)=O)NC(=O)[C@H](CC(C)C)NC(=O)[C@H](Cc2ccc(O)cc2)NC1=O` [CAS_150828-75-4] (Ac-HSDAVFTENY(Me)TKLRKQ[Nle]AAKKYLNDLKK-NH2; lactam 21-25), the Ki [1] is reported as 16 nM and 9.6 nM and the Ki (VIP peptides) is reported as 3.4 nM.
